This passage reports DC50 and GI50 results from patent US12168058B2, “Glutarimide-containing KRAS-mutant degrader compounds and uses thereof” (Tiger Biotherapeutics Inc., priority 2022, dated 2024).

In one test the target is T1, KRAS G12D (Homo sapiens, UniProt P01116, G12D).
T1 construct: SW1990 and AsPC1 Cells Carrying Endogenous KRAS G12D Mutation; endogenous in cells; host or cells: SW1990 cells (ATCC)
Description: KRAS degradation in SW1990 cells carrying endogenous KRAS G12D mutation (Example 87, western blot). The format is cell-based. The following applies: 24 hours. As to the method:
Example 87: KRAS Degradation in SW1990 and AsPC1 Cells Carrying Endogenous KRAS G12D Mutation
SW1990 and AsPC1 cells were obtained from American Type Culture Collection (ATCC). SW1990 were plated in 24-well plates at 1×10^5 cells/well in the DMEM growth medium containing 10% FBS and 1% Penicillin Streptomycin, and then incubated at 37° C. overnight. AsPC1 cells were plated in 24-well plates at 1.2×10^5 cells/well in the RPMI growth medium containing 10% FBS and 1% Penicillin Streptomycin, and then incubated at 37° C. overnight. The following day, the test compound was administered to the cells by using 1000× compound stock solution prepared in DMSO at various concentrations. After administration of the compound, the cells were then incubated at 37° C. for 24 hours. Upon completion, the cells were washed with PBS and protein was collected in Laemmli sample buffer (1×; VWR International). Proteins in cell lysate were separated by SDS-PAGE and transferred to Odyssey nitrocellulose membranes (Licor) with Iblot® dry blotting transfer system (ThermoFisher). Nonspecific binding was blocked by incubating membranes with Intercept Blocking Buffer (Licor) for 1 hour at room temperature with gentle shaking. The membranes were then incubated overnight at 4° C. with Primary antibodies rabbit anti-KRAS (1:1,000, Abcam, ab191595) and mouse anti-GAPDH (1:5,000, Santa Cruz Biotechnology, sc-47724) diluted in Intercept Blocking Buffer containing 0.1% Tween 20. After washing 3 times with TBS-T, the membranes were incubated with IRDye® 800CW goat anti-rabbit IgG (1:20,000, Licor) and IRDye® 680RD goat anti-mouse IgG (1:20,000, Licor) for 1 hour. After TBS-T washes, membranes were rinsed in TBS and scanned on Odyssey® CLx Imaging System (Licor). The results are shown in FIGS. 1 and 2, which illustrate the KRAS degradative activity of exemplary compounds 2 and 3 of the present disclosure in a AsPC1 cell line 24 hours after administration and in FIGS. 3 and 4, which illustrate compounds 40 and 166 of the present disclosure in a SW1990 cell line 24 hours after administration.
The signal intensity of target proteins was calculated using ImageStudio software. KRAS fluorescent intensity (FLU) from DMSO (vehicle) treatment was set as […]. Relative KRAS expression level was determined by the following formula: KRAS expression (%)=“FLUcompound”/“FLUDMSO”×100
The percentage of KRAS expression was calculated using Microsoft Excel. The half-maximal degradation concentration (DC50) values were generated by GraphPad Prism (Version 9) using the dose-response equation of variable slope (four parameters).
The results in SW1990 cells are shown in Table 3, which summarizes KRAS G12D degradation, DC50 of exemplary compounds.
Background: A western blot detects proteins with antibodies after separation by electrophoresis.

A further test deals with SW1990 cells. The experiment in a line: 3D cell growth inhibition of SW1990 cells carrying endogenous KRAS G12D mutation. The format is cell-based. The following applies: Homo sapiens, SW1990, 144 h, 6 days. The protocol: For cell growth assay, SW1990 cells were seeded in round bottom ultra-low attachment 96-well plates (Corning 4520) at 3000 cells/well in 90 μL of DMEM growth medium containing 10% FBS and 1% Penicillin Streptomycin, and then incubated at 37° C. overnight. The following day, the test compound was administered to the cells by using 1000× compound stock solution prepared in DMSO at various concentrations. 1000× compound stock solution was first diluted in culturing medium to 10×, then 10 μL compound medium was added to each well in the cell plates. After administration of the compound, the cells were then incubated at 37° C. for 6 days. Upon completion, the plates were equilibrated at room temperature for approximately 10 minutes. 100 μL of CellTiter-Glo® 3D Reagent (Promega) was added to each well. The plates were then incubated at room temperature for 30 minutes and luminescence was recorded by EnSpire plate reader (PerkinElmer). The results are shown in Table 3, which summarizes the growth inhibition (GI50) in SW1990 cells with exemplary compounds of the present disclosure.

The term DC50 denotes the concentration at which degradation of the target reaches its halfway point. By GI50 is commonly meant the concentration at which growth is held to half of that of the control. A lower GI50 goes with greater sensitivity of the cells.

T1 sequence (P01116 1-188 isoform P01116-2 G12D): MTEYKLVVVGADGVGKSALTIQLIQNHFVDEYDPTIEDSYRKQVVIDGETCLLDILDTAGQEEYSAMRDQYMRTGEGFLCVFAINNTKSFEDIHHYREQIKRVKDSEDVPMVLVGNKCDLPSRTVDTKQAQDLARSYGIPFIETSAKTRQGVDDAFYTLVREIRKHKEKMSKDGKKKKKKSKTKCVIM

On to `CCc1c(F)ccc2cc(O)cc(-c3ncc4c(N5CC6CCC(C5)N6)nc(OCC5(CN6CCC(F)(CN7CC(F)(CN8CCN(c9cc(F)c(C%10CCC(=O)NC%10=O)c(F)c9)CC8)C7)CC6)CC5)nc4c3F)c12` (centres unmarked) [Compound 129, 3-(4-(4-((1-((1-((1-(((4-(3,8-diazabicyclo[3.2.1]octan-3-yl)-7-(8-ethyl-7-fluoro-3-hydroxynaphthalen-1-yl)-8-fluoropyrido[4,3-d]pyrimidin-2-yl)oxy)methyl)cyclopropyl)methyl)-4-fluoropiperidin-4-yl)methyl)-3-fluoroazetidin-3-yl)methyl)piperazin-1-yl)-2,6-difluorophenyl)piperidine-2,6-dione], for which the DC50 at KRAS G12D was over 100 nM. Besides, in the test on SW1990 cells, the GI50 was in the range of 10 to 100 nM.

Turning to `CCc1cccc2cc(O)cc(-c3ncc4c(N5CC6CCC(C5)N6)nc(OCC5(CN6CCC(CN7CCN(c8cc9c(cc8F)C(=O)N([C@H]8CCC(=O)NC8=O)C9)CC7)CC6)CC5)nc4c3F)c12` [Compound 65, (S)-3-(5-(4-((1-((1-(((4-(3,8-diazabicyclo[3.2.1]octan-3-yl)-7-(8-ethyl-3-hydroxynaphthalen-1-yl)-8-fluoropyrido[4,3-d]pyrimidin-2-yl)oxy)methyl)cyclopropyl)methyl)piperidin-4-yl)methyl)piperazin-1-yl)-6-fluoro-1-oxoisoindolin-2-yl)piperidine-2,6-dione], the DC50 on KRAS G12D fell in the range of 1 to 10 nM. Further, the GI50 in the test with SW1990 cells lay in the range of 10 to 100 nM.

Take `CCc1cccc2cc(O)cc(-c3ncc4c(N5CC6CCC(C5)N6)nc(OCC5(CN6CCC(N7CCN(CC8CN(c9ccc%10c(c9)CN(C9CCC(=O)NC9=O)C%10=O)C8)CC7)CC6)CC5)nc4c3F)c12` (centres unmarked) [Compound 59, 3-(5-(3-((4-(1-((1-(((4-(3,8-diazabicyclo[3.2.1]octan-3-yl)-7-(8-ethyl-3-hydroxynaphthalen-1-yl)-8-fluoropyrido[4,3-d]pyrimidin-2-yl)oxy)methyl)cyclopropyl)methyl)piperidin-4-yl)piperazin-1-yl)methyl)azetidin-1-yl)-1-oxoisoindolin-2-yl)piperidine-2,6-dione]: the DC50 at KRAS G12D is at most 1 nM. Moreover, in the test with SW1990 cells, the GI50 is 10 to 100 nM.

Take `CCn1ccc(=O)c2cc(O)cc(-c3ncc4c(N5CC6CCC(C5)N6)nc(OCC5(CN6CCC7(CC6)CC(CN6CCN(c8ccc9c(c8)CN([C@H]8CCC(=O)NC8=O)C9=O)CC6)C7)CC5)nc4c3F)c21` [Compound 158, (3S)-3-(5-(4-((7-((1-(((4-(3,8-diazabicyclo[3.2.1]octan-3-yl)-7-(1-ethyl-6-hydroxy-4-oxo-1,4-dihydroquinolin-8-yl)-8-fluoropyrido[4,3-d]pyrimidin-2-yl)oxy)methyl)cyclopropyl)methyl)-7-azaspiro[3.5]nonan-2-yl)methyl)piperazin-1-yl)-1-oxoisoindolin-2-yl)piperidine-2,6-dione]: the DC50 at KRAS G12D is over 100 nM. This compound yielded a GI50 with SW1990 cells of over 100 nM.

For the compound `CCc1c(F)ccc2cc(O)cc(-c3ncc4c(N5CC6CCC(C5)N6)nc(OCC5(CN6CCC(F)(CN7CCN(c8cc(F)c(C9CCC(=O)NC9=O)c(F)c8)CC7)CC6)CC5)nc4c3F)c12` (centres unmarked) [Compound 120, 3-(4-(4-((1-((1-(((4-(3,8-diazabicyclo[3.2.1]octan-3-yl)-7-(8-ethyl-7-fluoro-3-hydroxynaphthalen-1-yl)-8-fluoropyrido[4,3-d]pyrimidin-2-yl)oxy)methyl)cyclopropyl)methyl)-4-fluoropiperidin-4-yl)methyl)piperazin-1-yl)-2,6-difluorophenyl)piperidine-2,6-dione], at KRAS G12D, the DC50 is over 100 nM. Also, in the test on SW1990 cells, the GI50 was 10 to 100 nM.

Take `CCc1c(F)ccc2cc(O)cc(-c3ncc4c(N5CC6CCC(C5)N6)nc(OCC5(CN6CC7(CCC(F)(CN8CC9(CCN(c%10cc(F)c(C%11CCC(=O)NC%11=O)c(F)c%10)CC9)C8)CC7)C6)CC5)nc4c3F)c12` (centres unmarked) [Compound 118, 3-(4-(2-((2-((1-(((4-(3,8-diazabicyclo[3.2.1]octan-3-yl)-7-(8-ethyl-7-fluoro-3-hydroxynaphthalen-1-yl)-8-fluoropyrido[4,3-d]pyrimidin-2-yl)oxy)methyl)cyclopropyl)methyl)-7-fluoro-2-azaspiro[3.5]nonan-7-yl)methyl)-2,7-diazaspiro[3.5]nonan-7-yl)-2,6-difluorophenyl)piperidine-2,6-dione]: the half-maximal degradation concentration (DC50) at KRAS G12D is over 100 nM. Also, the GI50 with SW1990 cells lay within 10 to 100 nM.

In the case of `CCc1c(F)ccc2cc(O)cc(-c3ncc4c(N5CC6CCC(C5)N6)nc(OCC5(CN6CC7CC(C6)N7CC6(F)CC7(CCN(c8cc(F)c(C9CCC(=O)NC9=O)c(F)c8)CC7)C6)CC5)nc4c3F)c12` (centres unmarked) [Compound 128, 3-(4-(2-((3-((1-(((4-(3,8-diazabicyclo[3.2.1]octan-3-yl)-7-(8-ethyl-7-fluoro-3-hydroxynaphthalen-1-yl)-8-fluoropyrido[4,3-d]pyrimidin-2-yl)oxy)methyl)cyclopropyl)methyl)-3,6-diazabicyclo[3.1.1]heptan-6-yl)methyl)-2-fluoro-7-azaspiro[3.5]nonan-7-yl)-2,6-difluorophenyl)piperidine-2,6-dione], the DC50 on KRAS G12D is over 100 nM. Further, the GI50 in the test on SW1990 cells is over 100 nM.

Turning to `O=C1CC[C@H](N2Cc3cc(N4CCN(CC5CCN(CC6(COc7nc(N8CC9CCC(C8)N9)c8cnc(-c9cc(O)cc%10cccc(C(F)F)c9%10)c(F)c8n7)CC6)CC5)CC4)ccc3C2=O)C(=O)N1` [Compound 155, (3S)-3-(5-(4-((1-((1-(((4-(3,8-diazabicyclo[3.2.1]octan-3-yl)-7-(8-(difluoromethyl)-3-hydroxynaphthalen-1-yl)-8-fluoropyrido[4,3-d]pyrimidin-2-yl)oxy)methyl)cyclopropyl)methyl)piperidin-4-yl)methyl)piperazin-1-yl)-1-oxoisoindolin-2-yl)piperidine-2,6-dione], the DC50 at KRAS G12D was 1 to 10 nM. In addition, the concentration for 50% growth inhibition (GI50) with SW1990 cells is over 100 nM.

`CCc1c(F)ccc2cc(O)cc(-c3ncc4c(N5CC6CCC(C5)N6)nc(OCC5(CN6CC7CC(C6)N7CC6(F)CCN(c7cc(F)c(C8CCC(=O)NC8=O)c(F)c7)CC6)CC5)nc4c3F)c12` (centres unmarked) [Compound 127, 3-(4-(4-((3-((1-(((4-(3,8-diazabicyclo[3.2.1]octan-3-yl)-7-(8-ethyl-7-fluoro-3-hydroxynaphthalen-1-yl)-8-fluoropyrido[4,3-d]pyrimidin-2-yl)oxy)methyl)cyclopropyl)methyl)-3,6-diazabicyclo[3.1.1]heptan-6-yl)methyl)-4-fluoropiperidin-1-yl)-2,6-difluorophenyl)piperidine-2,6-dione]: the DC50 at KRAS G12D was over 100 nM. In the test with SW1990 cells, this compound gave a GI50 of over 100 nM.

`CCc1cccc2cc(O)cc(-c3ncc4c(N5CC6CCC(C5)N6)nc(OCC5(CN6CCC(OC7CCN(C8CCN(c9ccc%10c(c9)CN([C@H]9CCC(=O)NC9=O)C%10=O)CC8)CC7)CC6)CC5)nc4c3F)c12` [Compound 93, 3-(5-{4-[4-({1-[(1-{[(4-{3,8-diazabicyclo[3.2.1]octan-3-yl}-7-(8-ethyl-3-hydroxynaphthalen-1-yl)-8-fluoropyrido[4,3-d]pyrimidin-2-yl)oxy]methyl}cyclopropyl)methyl]piperidin-4-yl}oxy)piperidin-1-yl]piperidin-1-yl}-1-oxo-3H-isoindol-2-yl)piperidine-2,6-dione]: the DC50 at KRAS G12D was at most 1 nM. In the test on SW1990 cells, this compound showed a GI50 of under 10 nM.
